Legend:
ES = ES activity after incubation with proteinase inhibitors; design: species or system Lucilia sericata
fibroblasts = experiment: Fibroblast adhesion to fibronectin-coated surface (ATP assay); assay type: cell-based; settings: for cell adhesion: 1.6 μg/ml commercial trypsin
Protocol: (§1) FIG. 10 is two graphs showing the effect of ES, trypsin, chymotrypsin and trypsin/chymotrypsin mix upon fibroblast cell adhesion to a FN-coated surface, following 24 h incubation, in relation to each enzyme concentration's proteolytic activity. Such activity was assessed by monitoring the release of 7-amino-4-methylcoumarin (AMC) from synthetic peptide substrates for a. trypsin or b. chymotrypsin. Cell adhesion was measured using a firefly luciferase-based luminescent adenosine triphosphate (ATP) assay. Results were expressed as mean % cell adhesion of the control±1SD (n=3).
The present inventors undertook a further experiment to compare the effect of the ES chymotrypsin with a commercially available bovine chymotrypsin. The effect of ES upon fibroblast adhesion to fibronectin was therefore compared with commercially available preparations of trypsin and chymotrypsin. This was achieved by seeding fibroblasts upon a fibronectin-coated surface in the presence of various concentrations of ES, commercial trypsin or commercial chymotrypsin. […] An adenosine triphosphate (ATP) assay was then applied in order to quantify the relative numbers of cells remaining upon the surface according to the concentration of ATP detected.

[1] = Chymotryptic activity, release of AMC from fluorescent peptide substrate; assay type: biochemical
Protocol: as §1
(§2) Chymotryptic/tryptic activity was assessed by monitoring the release of 7-amino-4-methylcoumarin (AMC) from Suc-Ala-Ala-Pro-Phe-AMC (chymotryptic) and Tosyl-Gly-Pro-Arg-AMC (tryptic). 50 μl of each fraction was incubated with 150 μl of substrate (5 μM) diluted in PBS. Samples were incubated at 37° C. for 30 minutes after which the fluorescence was measured (excitation 365 nm, emission detection 465 nm) using a Dynex MFX microplate fluorimeter. Proteolytic activity is expressed as the number of fluorescence units emitted over 30 minutes following the deduction of a time zero reading.

[2] = Tryptic activity, release of AMC from fluorescent peptide substrate; assay type: biochemical; settings: 1.6 μg/ml commercial trypsin vs 5 μg/ml ES
Protocol: as §1, §2

[3] = 0.1 μg/ml commercial chymotrypsin
[4] = 0.2 μg/ml commercial chymotrypsin

## N=C(N)c1ccc(CS(=O)(=O)F)cc1 [APMSF, 4-(amidinophenyl) methane sulphonyl fluoride]
ES
  tissue remodelling and regeneration properties of the ES after incubation with inhibitor: not lost/inhibited

## O=S(=O)(F)Cc1ccccc1 [PMSF, phenyl methanesulphonyl fluoride]
ES
  tissue remodelling and regeneration properties of the ES after incubation with inhibitor: lost or inhibited

## chymotrypsin [commercial chymotrypsin]
fibroblasts; [3]
  fibroblast adhesion: no ability to modify fibroblast adhesion
fibroblasts; [4]
  fibroblast adhesion: no effect upon fibroblast adhesion
[1]; [3]
  activity against chymotrypsin-specific substrate relative to ES: 94.1 % of the activity of 5 μg/ml ES
[1]; [4]
  activity against chymotrypsin-specific substrate relative to ES: 204.9 % of the activity of 5 μg/ml ES

## trypsin [commercial trypsin]
fibroblasts; 24 hours incubation
  cell adhesion: 34.9 % of the control
fibroblasts; 48 hours incubation
  cell adhesion: 24.7 % of the control
[2]
  activity against trypsin-specific substrate relative to ES: 103.2 % of the activity of ES

B1: Soybean Trypsin Inhibitor (protein, UniProt P01070 25-205, looked up)
Trypsin inhibitor A: DFVLDNEGNPLENGGTYYILSDITAFGGIRAAPTGNERCPLTVVQSRNELDKGIGTIISSPYRIRFIAEGHPLSLKFDSFAVIMLCVGIPTEWSVVEDLPEGPAVKIGENKDAMDGWFRLERVSDDEFNNYKLVFCPQQAEDDKCGDIGISIDHDDGTRRLVVSKNKPLVVQFQKLDKESL
ES
  ability of ES to enhance fibroblast migration and degrade extra-cellular matrix proteins after incubation with inhibitor: removes the ability of the ES to enhance fibroblast migration and its ability to degrade extra-cellular matrix proteins

— patent US20100008898A1, “CHYMOTRYPSIN FROM LUCILIA SERICATA LARVAE AND ITS USE FOR THE TREATMENT OF WOUNDS” (priority 2006, published 2010)
